Values joined by “and” are separate entries in the source; they are usually repeats but may differ in a detail not shown here. Identical values can stand only once. Counter-ions that a name gives are not always drawn.
Test system: 5-HT release in the rat prefrontal cortex
Experiment: Microdialysis: 5-HT release in prefrontal cortex after I.P. administration
Assay type: in vivo
Details: for 5-HT release (% of basal levels) measured in dialysates: individual animals, hydrochloride, 3 mg/kg; for 5-HT release (% of basal levels) measured in dialysates, MEAN / 5-HT (% of respective basal) MEAN: n = 8; for 5-HT (% of respective basal) MEAN: SON-117 group 0.1 mg/kg I.P.
Experimental: The aim of the study was to evaluate, using microdialysis, the effects of an intraperitoneal (I.P.) administration in rats of three different doses of SON-117 on dopamine and its metabolites, serotonin and its metabolite (5-HIAA), and norepinephrine levels in prefrontal cortex.
Thirty-two adult male Wistar rats were used for the whole study (4 groups of eight animals planned for the study, Table 1).
Surgery was performed on rats weighing about 300 g at the beginning of the experiments. Rats were anaesthetized with Ketamine (50 mg/kg) & Xylazine (15 mg/kg) by intramuscular administration. The animals were placed in a stereotaxic apparatus in the flat-skull position at a constant setting of −3.3 mm between ear bars and the incisor bar. The animals were treated with a local anesthesic (xylocaine 1%, Astra Zeneca) and an analgesic (Temgesic, from Schering Plough, 0.05 mg/kg, s.c.). A rostrocaudal midline incision was made with a lancet to expose the dorsal skull surface. The “stereotaxic zero” was defined by the Bregma in accordance with Paxinos and Watson's atlas (1986). A hole was drilled in the skull with a drill and the meninges were pierced with a sterile needle to implant a CMA12 guide cannula which later received the dialysis probe.
Coordinates used for implanting guide cannula in prefrontal cortex from Bregma were anteroposterior 3.7 mm, mediolateral 0.8 mm, and dorsoventral −2 mm (top of the probe was at −5 mm). The guide cannula was fixed to the skull with two stainless steel screws (1.88 mm outside diameter) anchored. An application of dental cement was added. A plastic collar allowed each animal to be tethered to a Swivel assembly of the CMA 120 awake animal system. Following surgery, rats were kept in individual cages and allowed to recover for a minimum of 3-5 days before the experimentation. The rats were handled and put in plastic bowl for 10 min at least every day to habituate the animals to their new environment for the dialysis. An I.P. administration with saline was also performed every day.
Dialysis probes (CMA12/3 mm, membrane, 20 kD cut-off, Carnegie Medicine, Stockholm, Sweden), were carefully washed before inserting into the guide cannula. The wash was performed with the artificial cerebrospinal fluid (aCSF) medium (NaCl 147 mM, KCl 2.7 mM, CaCl2 1.2 mM, MgCl2 0.85 mM) at room temperature. The dialysis system was then equilibrated at 20° C. at a perfusion rate of 1 μl/min with a Carnegie pump (CMA100). All catheters (FEP tubing, internal volume of 1.2 μl/10 cm, and tubing adaptors) used for microdialysis were treated in the same conditions.
The probes duly prepared were inserted into the guide cannula and the CMA120 Swivel assembly secured to the animal using a plastic collar. Flow through the dialysis probe with aCSF was maintained at a rate of 1 μl/min during the whole experimentation. The first four fractions (corresponding to 2 hours) were discarded to avoid the effects of parenchymal disturbance and to ensure that an approximate steady-state level was reached. Fractions were then collected over a period of 8.5 h during which time the animals remained quiet. The dialysates were automatically collected with an autosampler (microfraction collector CMA 140, Carnegie Medicin) and stored at −80° C. until analysis. […] Perfusion was then maintained for 7 hours with aCSF. The dialysates (30 μl) were collected into 300 μl vials, transferred into dry ice and then kept frozen (−80° C.) until analysis. Frozen samples were shipped to a partner for analysis. At the end of the microdialysis study, a PBS with colored ink was perfused through the probe in order to visualize the dialyzed area.
Catecholamine assay: Concentrations of dopamine, DOPAC, HVA, 5-HIAA, 5-HT, and norepinephrin were determined for each sample by HPLC coupled with electrochemical detection. […]

[1] = SON-117 3 mg/kg IP, T1 h 30-T2 h
[2] = SON-117 3 mg/kg IP, T1 h-T1 h 30
[3] = SON-117 3 mg/kg IP, T2 h 30-T3 h
[4] = SON-117 3 mg/kg IP, T2 h-T2 h 30
[5] = SON-117 3 mg/kg IP, T3 h 30-T4 h
[6] = SON-117 3 mg/kg IP, T3 h-T3 h 30
[7] = SON-117 3 mg/kg IP, T4 h 30-T5 h
[8] = SON-117 3 mg/kg IP, T4 h-T4 h 30
[9] = SON-117 3 mg/kg IP, T5 h 30-T6 h
[10] = SON-117 3 mg/kg IP, T5 h-T5 h 30
[11] = SON-117 3 mg/kg IP, T6 h 30-T7 h
[12] = SON-117 3 mg/kg IP, T6 h-T6 h 30
[13] = SON-117 3 mg/kg IP, T-1 h 30-T-1 h (pre-administration)

## Cc1nnc(-c2cc3c(OC[C@@H](O)CN4CCC(c5ccc(Cl)c(Cl)c5)CC4)cccc3o2)o1 [SON-117, (S)-1-(4-(3,4-dichlorophenyl)piperidino)-3-(2-(5-methyl-1,3,4-oxadiazol-2-yl)benzo(b)furan-4-yloxy)-2-propanol hydrochloride]
SON-117 3 mg/kg IP, T30-T1 h
  5-HT release (% of basal levels) measured in dialysates: 204.22 % of basal levels and 162.26 % of basal levels and 105.16 % of basal levels and 123.52 % of basal levels and 121.85 % of basal levels and 66.82 % of basal levels and 90.61 % of basal levels and 103.58 % of basal levels
[1]
  5-HT release (% of basal levels) measured in dialysates, MEAN: 172.47 % of basal levels
  5-HT release (% of basal levels) measured in dialysates: 272.64 % of basal levels and 219.61 % of basal levels and 141.23 % of basal levels and 159.07 % of basal levels and 135.20 % of basal levels and 206.96 % of basal levels and 105.40 % of basal levels and 139.63 % of basal levels
[2]
  5-HT release (% of basal levels) measured in dialysates, MEAN: 139.57 % of basal levels
  5-HT release (% of basal levels) measured in dialysates: 205.53 % of basal levels and 81.50 % of basal levels and 112.86 % of basal levels and 110.90 % of basal levels and 126.82 % of basal levels and 127.44 % of basal levels and 170.45 % of basal levels and 181.06 % of basal levels
[3]
  5-HT release (% of basal levels) measured in dialysates, MEAN: 134.29 % of basal levels
  5-HT release (% of basal levels) measured in dialysates: 158.52 % of basal levels and 136.53 % of basal levels and 84.73 % of basal levels and 118.94 % of basal levels and 141.58 % of basal levels and 105.71 % of basal levels and 168.18 % of basal levels and 160.12 % of basal levels
[4]
  5-HT release (% of basal levels) measured in dialysates, MEAN: 134.68 % of basal levels
  5-HT release (% of basal levels) measured in dialysates: 125.58 % of basal levels and 163.25 % of basal levels and 90.55 % of basal levels and 143.00 % of basal levels and 145.36 % of basal levels and 158.14 % of basal levels and 116.88 % of basal levels
[5]
  5-HT release (% of basal levels) measured in dialysates, MEAN: 122.79 % of basal levels
  5-HT release (% of basal levels) measured in dialysates: 112.86 % of basal levels and 166.51 % of basal levels and 77.19 % of basal levels and 149.84 % of basal levels and 120.64 % of basal levels and 72.84 % of basal levels and 159.63 % of basal levels
[6]
  5-HT release (% of basal levels) measured in dialysates, MEAN: 131.57 % of basal levels
  5-HT release (% of basal levels) measured in dialysates: 178.23 % of basal levels and 97.99 % of basal levels and 78.86 % of basal levels and 198.09 % of basal levels and 131.52 % of basal levels and 75.85 % of basal levels and 160.43 % of basal levels
[7]
  5-HT release (% of basal levels) measured in dialysates, MEAN: 263.96 % of basal levels
  5-HT release (% of basal levels) measured in dialysates: 119.63 % of basal levels and 88.15 % of basal levels and 75.09 % of basal levels and 174.97 % of basal levels and 117.70 % of basal levels and 1179.79 % of basal levels and 92.36 % of basal levels
[8]
  5-HT release (% of basal levels) measured in dialysates, MEAN: 118.76 % of basal levels
  5-HT release (% of basal levels) measured in dialysates: 40.46 % of basal levels and 171.66 % of basal levels and 76.54 % of basal levels and 186.25 % of basal levels and 112.71 % of basal levels and 98.26 % of basal levels and 145.41 % of basal levels
[9]
  5-HT release (% of basal levels) measured in dialysates, MEAN: 150.50 % of basal levels
  5-HT release (% of basal levels) measured in dialysates: 121.53 % of basal levels and 146.21 % of basal levels and 238.25 % of basal levels and 159.31 % of basal levels and 72.12 % of basal levels and 135.51 % of basal levels and 180.58 % of basal levels
[10]
  5-HT release (% of basal levels) measured in dialysates, MEAN: 176.38 % of basal levels
  5-HT release (% of basal levels) measured in dialysates: 118.62 % of basal levels and 189.63 % of basal levels and 161.82 % of basal levels and 191.70 % of basal levels and 132.84 % of basal levels and 100.25 % of basal levels and 410.45 % of basal levels and 105.75 % of basal levels
[11]
  5-HT release (% of basal levels) measured in dialysates, MEAN: 172.13 % of basal levels
  5-HT release (% of basal levels) measured in dialysates: 146.14 % of basal levels and 156.41 % of basal levels and 213.64 % of basal levels and 136.73 % of basal levels and 298.30 % of basal levels and 107.87 % of basal levels and 145.86 % of basal levels
[12]
  5-HT release (% of basal levels) measured in dialysates, MEAN: 156.40 % of basal levels
  5-HT release (% of basal levels) measured in dialysates: 135.63 % of basal levels and 218.45 % of basal levels and 123.22 % of basal levels and 169.93 % of basal levels and 132.54 % of basal levels and 87.76 % of basal levels and 130.92 % of basal levels and 252.75 % of basal levels
SON-117 3 mg/kg IP, T-30 min-T0 (pre-administration)
  5-HT release (% of basal levels) measured in dialysates, MEAN: 97.07 % of basal levels
[13]
  5-HT release (% of basal levels) measured in dialysates, MEAN: 101.16 % of basal levels
  5-HT release (% of basal levels) measured in dialysates: 104.98 % of basal levels and 84.68 % of basal levels and 89.82 % of basal levels
SON-117 3 mg/kg IP, T-1 h-T-30 min (pre-administration)
  5-HT release (% of basal levels) measured in dialysates, MEAN: 102.92 % of basal levels
SON-117 3 mg/kg IP, from 2 h to 3 h
  5-HT concentrations in prefrontal cortex, significant increase, max.: 175%
SON-117 3 mg/kg IP, from 5.5 h to 7 h
  5-HT concentrations in prefrontal cortex, significant increase: 272%
SON-117 3 mg/kg, 7 h after administration
  5-HT release, increase still present: 183%
SON-117 3 mg/kg, at 1 h
  levels of 5-HT compared to the citalopram treated group (significant): slightly lower
SON-117 3 mg/kg, at 5 h
  5-HT release, maximum increase observed: 272%
SON-117 3 mg/kg, at 5 h and 7 h
  levels of 5-HT compared to the citalopram treated group (significant): higher
T0-T30 min
  5-HT (% of respective basal) MEAN: 128.89 % of respective basal
T30-T1 h
  5-HT (% of respective basal) MEAN: 123.42 % of respective basal
T1 h 30-T2 h
  5-HT (% of respective basal) MEAN: 167.52 % of respective basal
T1 h-T1 h 30
  5-HT (% of respective basal) MEAN: 176.03 % of respective basal
T2 h 30-T3 h
  5-HT (% of respective basal) MEAN: 215.80 % of respective basal
T2 h-T2 h 30
  5-HT (% of respective basal) MEAN: 370.70 % of respective basal
T3 h 30-T4 h
  5-HT (% of respective basal) MEAN: 151.83 % of respective basal
T3 h-T3 h 30
  5-HT (% of respective basal) MEAN: 156.53 % of respective basal
T4 h 30-T5 h
  5-HT (% of respective basal) MEAN: 296.70 % of respective basal
T4 h-T4 h 30
  5-HT (% of respective basal) MEAN: 350.16 % of respective basal
T5 h 30-T6 h
  5-HT (% of respective basal) MEAN: 250.07 % of respective basal
T5 h-T5 h 30
  5-HT (% of respective basal) MEAN: 310.25 % of respective basal
T6 h 30-T7 h
  5-HT (% of respective basal) MEAN: 253.10 % of respective basal
T6 h-T6 h 30
  5-HT (% of respective basal) MEAN: 254.62 % of respective basal
T-30 min-T0 (before administration)
  5-HT (% of respective basal) MEAN: 112.68 % of respective basal
T-1 h 30-T-1 h (before administration)
  5-HT (% of respective basal) MEAN: 80.63 % of respective basal
T-1 h-T-30 min (before administration)
  5-HT (% of respective basal) MEAN: 106.27 % of respective basal
